pKi: −log10 of the molar value.
Legend:
[1] = target: bovine milk xanthine oxidoreductase (bXOR) (Bos taurus, UniProt P80457); experiment: steady-state kinetics, xanthine-NAD+ activity, uric acid absorbance at […] nm; format: biochemical
[2] = target: T1, Rhodobacter capsulatus xanthine oxidoreductase (RcXOR) (Rhodobacter capsulatus, UniProt O54051); experiment: steady-state kinetics, Lineweaver-Burk plots of xanthine-NAD+ activity; format: biochemical
T1 sequence (O54051 1-777): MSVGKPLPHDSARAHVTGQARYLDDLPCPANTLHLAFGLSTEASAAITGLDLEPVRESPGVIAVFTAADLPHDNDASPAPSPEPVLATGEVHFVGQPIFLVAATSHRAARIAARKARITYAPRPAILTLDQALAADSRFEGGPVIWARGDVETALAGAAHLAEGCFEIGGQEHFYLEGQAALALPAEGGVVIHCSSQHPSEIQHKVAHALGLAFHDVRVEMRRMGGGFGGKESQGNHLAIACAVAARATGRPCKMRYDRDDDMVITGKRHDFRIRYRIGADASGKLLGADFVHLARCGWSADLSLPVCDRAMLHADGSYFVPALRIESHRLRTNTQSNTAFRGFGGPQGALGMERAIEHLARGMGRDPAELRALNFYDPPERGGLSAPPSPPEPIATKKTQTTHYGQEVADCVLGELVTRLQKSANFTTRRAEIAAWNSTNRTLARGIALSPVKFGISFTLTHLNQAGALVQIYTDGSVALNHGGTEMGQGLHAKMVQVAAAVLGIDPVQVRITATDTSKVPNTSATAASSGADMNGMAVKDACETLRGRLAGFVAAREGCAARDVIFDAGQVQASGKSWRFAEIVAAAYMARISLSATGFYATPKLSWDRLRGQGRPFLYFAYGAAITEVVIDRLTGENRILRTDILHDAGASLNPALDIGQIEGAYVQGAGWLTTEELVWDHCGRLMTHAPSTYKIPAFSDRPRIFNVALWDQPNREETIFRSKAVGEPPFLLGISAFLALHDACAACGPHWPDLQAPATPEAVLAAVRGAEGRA
T1 sequence (O54050 1-462 partner): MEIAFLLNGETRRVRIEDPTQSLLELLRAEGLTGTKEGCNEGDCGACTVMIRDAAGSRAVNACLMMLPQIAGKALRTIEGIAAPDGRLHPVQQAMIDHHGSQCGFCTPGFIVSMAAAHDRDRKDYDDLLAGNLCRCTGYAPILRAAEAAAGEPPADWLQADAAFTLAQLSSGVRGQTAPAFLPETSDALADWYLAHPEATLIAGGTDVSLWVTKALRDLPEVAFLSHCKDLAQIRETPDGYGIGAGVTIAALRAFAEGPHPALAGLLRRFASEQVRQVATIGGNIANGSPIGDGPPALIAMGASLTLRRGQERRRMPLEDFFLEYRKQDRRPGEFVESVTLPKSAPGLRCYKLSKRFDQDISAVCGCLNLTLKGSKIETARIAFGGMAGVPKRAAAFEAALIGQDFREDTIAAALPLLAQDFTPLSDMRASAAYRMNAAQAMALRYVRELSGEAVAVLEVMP

Sequence of bovine milk xanthine oxidoreductase (bXOR) (P80457 2-1332): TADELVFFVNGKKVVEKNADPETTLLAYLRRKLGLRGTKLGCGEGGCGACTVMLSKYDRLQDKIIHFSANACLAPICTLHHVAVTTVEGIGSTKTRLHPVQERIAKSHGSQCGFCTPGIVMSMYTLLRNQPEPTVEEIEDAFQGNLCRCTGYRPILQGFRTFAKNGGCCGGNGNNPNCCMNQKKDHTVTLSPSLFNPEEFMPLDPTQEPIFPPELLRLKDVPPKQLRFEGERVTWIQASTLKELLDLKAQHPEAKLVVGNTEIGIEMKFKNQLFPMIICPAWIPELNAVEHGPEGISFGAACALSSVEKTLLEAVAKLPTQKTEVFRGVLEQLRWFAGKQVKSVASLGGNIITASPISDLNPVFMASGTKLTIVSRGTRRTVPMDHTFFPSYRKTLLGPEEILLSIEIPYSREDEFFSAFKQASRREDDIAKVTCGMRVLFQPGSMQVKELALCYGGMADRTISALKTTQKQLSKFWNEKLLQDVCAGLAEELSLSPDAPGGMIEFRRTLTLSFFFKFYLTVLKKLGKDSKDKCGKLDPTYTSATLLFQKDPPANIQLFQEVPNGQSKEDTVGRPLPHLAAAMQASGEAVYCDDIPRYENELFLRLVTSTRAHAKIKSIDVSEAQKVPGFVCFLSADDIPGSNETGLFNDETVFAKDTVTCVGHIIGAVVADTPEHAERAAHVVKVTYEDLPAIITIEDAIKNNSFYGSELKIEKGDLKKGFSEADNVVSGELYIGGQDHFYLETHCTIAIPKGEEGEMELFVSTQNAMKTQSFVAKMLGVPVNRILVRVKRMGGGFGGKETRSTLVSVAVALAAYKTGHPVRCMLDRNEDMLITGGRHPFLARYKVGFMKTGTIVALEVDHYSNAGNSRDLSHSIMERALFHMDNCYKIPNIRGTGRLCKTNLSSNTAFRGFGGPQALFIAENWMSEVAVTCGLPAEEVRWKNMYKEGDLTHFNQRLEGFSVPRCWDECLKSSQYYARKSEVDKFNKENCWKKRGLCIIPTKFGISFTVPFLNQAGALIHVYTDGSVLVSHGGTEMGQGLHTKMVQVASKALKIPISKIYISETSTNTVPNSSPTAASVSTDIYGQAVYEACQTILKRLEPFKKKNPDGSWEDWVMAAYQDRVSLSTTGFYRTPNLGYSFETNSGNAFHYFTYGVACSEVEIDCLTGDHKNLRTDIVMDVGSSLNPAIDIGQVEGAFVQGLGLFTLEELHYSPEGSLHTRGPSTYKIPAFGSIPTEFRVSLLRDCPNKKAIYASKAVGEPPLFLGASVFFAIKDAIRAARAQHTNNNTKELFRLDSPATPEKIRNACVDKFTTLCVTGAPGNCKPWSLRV

Cc1nc(-c2ccc(OCC(C)C)c(C#N)c2)sc1C(=O)O [febuxostat]
steady-state kinetics, xanthine-NAD+ activity, uric acid absorbance at 295 nm [1]: < 100 nM
pKi [2]: 4.76
